Measurements: US5830667A, “Human P450 IID6 cytochrome-derived peptide fragments, anti-peptide fragment antibodies, applications thereof in the diagnosis of autoimmune hepatitis” (Institut National de la Sante et de la Recherche …, priority 1991, dated 1998)
Ends that are not written are not given here.

B1: LKMC1/BamHI: fusion protein from EcoRI-BamHI fragment of LKMC1, cDNA clone encoding rat cytochrome P450 db2, in plasmid pEX-627 (protein)
chain: MGLLIGDDLWAVVIFTAIFLLLVDLVHRHKFWTAHYPPGPVPLPGLGNLLQVDFENMPYSLYKLRSRYGDVFSLQIAWKPVVVINGLKAVRELLVTYGEDTADRPLLPIYNHLGYGNKSKGVVLAPYGPEWREQRRFSVSTLRDFGVGKKSLEQWVTEEAGHLCDTFAKEAEHPFNPSILLSKAVSNVIASLVYARRFEYEDPFFNRMLKTLKESFGEDTGFMAEVLNAIPILLQIPGLPGKVFPKLNSFIALVDKMLIEHKKSWD

Tests used:
[1] = system: anti-LKM antibodies (LKM-positive sera); test: ELISA test of cytochrome P450 IID6 peptides with human sera; format: binding; details: for number of patients whose sera recognize the peptide: tested by ELISA and immunoblotting, 15 patients
Method: The peptides are redissolved in a PBS buffer, pH 7.4 and diluted in order to obtain concentrations of 0.1, 0.2, 0.5 and 1 μg/ml; 100 μl per well of each peptide solution are incubated overnight in microtitre plates containing 96 wells (IMMULON2a commercially available ELISAPLATE, Dynatech, Poly-Labo, Paris--FRANCE). The ELISA analysis is then performed as described in GUEGUEN M. et al., (Biochem. Biophys. Res. Commun., 1989, 159, 542), using the various human sera described above. The first antibodies are tested at dilutions ranging from 1/100 to 1/12,800. The alkaline phosphatase-conjugated goat anti-human IgG antibody is used as second antibody at a dilution of 1/1000. The test is developed by adding 100 μl of p-nitrophenyl phosphate at a concentration of 1 mg/ml in a 0.05M NaCO3 buffer, pH 9.8 and 0.001M MgCl2. The results read after incubating for 30 minutes at room temperature are considered positive when they are higher by a factor of 2 compared with the control serum.

[2] = system: anti-LKM antibodies (LKM-positive sera); test: Immunoblotting of cytochrome P450 IID6 peptides with LKM-positive sera; format: binding, human
Method: (§1) The expression of the fusion proteins from the cDNA constructs is described by STANLEY (Nucleic Acids Research, 1983, 11, 4077). 100 μl culture samples, for each fusion protein, are subjected to electrophoresis on an 8-20% SDS-polyacrylamide gel, transferred onto nitrocellulose and analysed by the immunoblot technique.
(§2) The first antibodies used for the immunoblot method are:
(§3) 1) sera from patients responding positively to the anti-LKM antibodies;
(§4) Depending on the origin of the first antibody, the second antibody is either a peroxydase-goat anti-human IgG conjugate, or a peroxydase-goat anti-mouse IgG conjugate (Biosys), at a dilution of 1/1000.
The different peptides and especially peptides 254-271 (peptide of formula II) , 264-281 and 410-429 (peptide of formula X), are coupled to BSA via their free NH2 -terminal group, using glutaraldehyde (see especially E. HARLOW and D. LANE, 1988, Antibodies, A laboratory manual, Cold Spring Harbor Laboratory).

anti-LKM autoantibodies = test: Peptide fragments used as diagnostic reagents for autoimmune hepatitis; format: binding, human
[3] = system: anti-LKM antibodies (LKM-positive sera); test: Immunoblot analysis of the fusion proteins P450 IID6/β-gal with LKM-positive sera; format: binding, human; details: eleven sera tested; FIG. 2
Method: b) Expression and immunoblot analysis of the fusion proteins obtained from the various constructs of pEX-627-LKMHC5 and pEX-627-LKMC1/BamHI.
as §1, §2, §3, §4
Rat liver and human liver microsomes and β-galactosidase, expressed by the plasmid pEX-627 not comprising the P450 DNA insert, are included on the same gels as positive controls and negative control respectively.

Molecule | number of patients whose sera recognize the peptide [1] | positive response in patients suffering from autoimmune hepatitis (anti-LKM autoantibodies) | further results
GMTHMTSRDIGVQGFRI [Peptide of formula IX, Gly-Met-Thr-His-Met-Thr-Ser-Arg-Asp-Ile-Gly-Val-Gln-Gly-Phe-Arg-Ile] | 1 patients/15 |  | 
LLTEHRMTWDPAQPPRDL [Peptide of formula II, Leu-Leu-Thr-Glu-His-Arg-Met-Thr-Trp-Asp-Pro-Ala-Gln-Pro-Pro-Arg-Asp-Leu] |  |  | recognized by LKM-positive sera when tested by ELISA [1]: recognized by all the LKM-positivesera; recognized by LKM-positive sera when tested by immunoblotting [2]: recognized by all the LKM-positivesera
MILHPDVQRRVQQEIDDVIGQVRRPEMGDQA [Peptide of formula Va] | 8 patients/15 | positive response in most patients | 
EKPYPEHFLDAQGHFVKPEA [Peptide of formula X, amino acids 410-429 of human cytochrome P450 IID6] | 2 patients/15 | positive response in most patients | 
B1 |  |  | recognition of fusion protein by LKM-positive sera on the immunoblots [3]: None of the sera of the patients tested recognizes
